Measurements taken from patent US4158052A, “Oil-free adjuvant compositions containing N-acetyl-muramyl-L-alanyl-D-isoglutamine” (priority 1975, dated 1979).
Entries after “also recorded” stand apart in the source; their conditions may differ.

What was measured:
Swiss common stock mice = test: Toxicity: lethal dose in mice, intravenous injection; assay type: in vivo; conditions: 300 μg, adrenalectomised mice
Experimental: The compound according to the invention has been compared with the lipopolysaccharide (LPS) prepared by the phenol-water procedure from S.enteriditis, with regard to their lethal doses (LD).
The method used to carry out these experiments is described by Chedid and al. in Ann. N.Y. Acad. Sci. 133:712, 1966. The tests are made on two month old Swiss common stock mice. The assayed products are administered by intravenous injections.
The compound according to the invention has been compared with the lipopolysaccharide (LPS) prepared by the phenol-water procedure from S.enteriditis with regard to their lethal dose (LD).
The method used to carry out these experiments is described by Chedid and al. in Ann. N.Y. Acad. Sci. 135:712, 1966. The tests are made on two month old Swiss common stock mice. The assayed products are administered by intravenous injection.

mice [1] = test: Adjuvanticity in aqueous solution: antibody levels in mice after BSA plus adjuvant in saline (PHA, ABC); assay type: in vivo; conditions: for antibody ABC Day 14 / antibody ABC Day 28 / antibody PHA Day 14 / antibody PHA Day 28: primary response; for antibody ABC Day 34 / antibody ABC Day 36 / antibody PHA Day 34 / antibody PHA Day 36: secondary response (BSA recall day 30); for adjuvanticity in aqueous solution (antibody titer), in words: administered in saline with BSA, mice
Experimental: In these experiments, the antibody levels in mice are determined following the injection of various compositions. The injected compositions contain bovine serum albumin (BSA) as antigen and the adjuvant compound according to the invention. The mice used as controls received the BSA and lipopolysaccharides. The compositions are injected in solution in saline. The injected dose of BSA is 0.5 mg per mouse, the recall dose (30 days after the first injection) contains 0.1 mg of BSA. Each tested composition is administered to eight mice. At various time intervals following the injection, the mice are bled to check the antibody level.
The antibody estimation is made either by passive hemagglutination (PHA) using formalinized sheep red blood cells coated with the tested antigen, or according to the method taught by A. A. Hirata and M. W. Brandiss (J. Immunol., 100, 641-648, 1968), or by the so-called antigen binding capacity method as described by P. Minden and S. Farr (Handbook of Exp. Immunol., p. 463, Weir D. M. ed. Blackwell Scientific Pub., Oxford and Edinburgh, 1967). […]
The antibody estimation is made either by passive hemagglutination (PHA) using formalinized sheep red blood cells coated with the tested antigen, or according to method taught by A. A. Hirata and M. W. Brandiss (J. Immunol., 100, 641-648, 1968), or by the so-called antigen binding capacity method described by P. Minden and S. Farr (Handbook of Exp. Immunol., p. 463, Weir D. M. ed. Blackwell Scientific Pub., Oxford and Edinburgh, 1967).

Hartley's guinea pigs = test: Adjuvanticity with a water in oil emulsion (comparative assay), ovalbumin antigen; assay type: in vivo; conditions: 50 μg compound with FIA + ovalbumin
Experimental: As previously, the adjuvanticity is estimated from the increase of the antibody level following an antigen injection. In these experiments, ovalbumin is used as antigen. Assays are carried out on Hartley's guinea pigs weighing 350 g. The animals are injected with 0.1 ml in each posterior footpad. Each dose contains 1 mg ovalbumin and either the Freund's complete adjuvant (FCA) or the Freund's incomplete adjuvant (FIA) or this one with the compound of the invention (50 μg). The antibody titer is estimated 21 days after the injection, by passive hemagglutination as indicated above, or by precipitation according to Folin's method.
A skin test for delayed hypersensitivity is made 18 days after the injection on the same animals. They received 5 μg of ovalbumin by intradermal injection. 48 hours later, the diameter of reaction is measured (in mm).

Hartley guinea pigs = conditions: for immunogenicity, in words: conclusion from skin tests in guinea pigs; for hypersensitivity reaction, in words: guinea pigs treated with FIA + compound
Experimental: For comparison, simultaneous tests were carried out with Freund's complete adjuvant (FCA).
Hartley guinea pigs weighing 350 g are skin-tested. […] Forty-eight hours after this second injection, the diameter of reaction is measured (in mm).
The estimation is made as previously described.

mice [2] = test: Reaction to influenza virus: adjuvanticity with influenza vaccine (hemagglutination inhibition); assay type: in vivo; conditions: vaccine + adjuvant compound versus vaccine only, vaccine recall after 30 days
Experimental: The adjuvanticity of the Mur-NAc-L-Ala-D-Glu-α-NH2 has been studied against the influenza vaccine on mice. The tested animals are injected with the vaccine and the adjuvant compound whereas controls only received the vaccine. Thirty days later, a recall containing only the vaccine is injected.
It is to be observed that the antibody level is much higher in animals which have received both vaccine and adjuvant compound than in controls. (The measure is made by hemagglutination inhibition following the method proposed by the World Health Organisation Comitee (1953).)

[3] = 100 μg per mouse + BSA in saline
[4] = 30 μg per mouse + BSA in saline
[5] = 300 μg per mouse + BSA in saline

Compound	survival after injection (Swiss common stock mice)	antibody ABC Day 14 (mice [1]; [3])	antibody ABC Day 28 (mice [1]; [3])	antibody PHA Day 14 (mice [1]; [3])	antibody PHA Day 28 (mice [1]; [3])	antibody ABC Day 34 (mice [1]; [3])	antibody ABC Day 36 (mice [1]; [3])	antibody PHA Day 34 (mice [1]; [3])	antibody PHA Day 36 (mice [1]; [3])	adjuvanticity in aqueous solution (antibody titer), in words (mice [1])	immunogenicity, in words (Hartley guinea pigs)	hypersensitivity reaction, in words (Hartley guinea pigs)	further results
CC(=O)N[C@H]1C(O)O[C@H](CO)[C@@H](O)[C@@H]1O[C@H](C)C(=O)N[C@@H](C)C(=O)N[C@H](CCC(=O)O)C(=O)O (stereo partly drawn) [Mur-NAc-L-Ala-D-Glu(OH), 2-(2-acetamido-2-deoxy-3-O-D-glucopyranosyl)-D-propionyl-L-alanyl-D-glutamic acid]	All mice survived	< 20	80	3	50	320	630	400	2,130	induces an enhancement of the antibody titer	not immunogenic	no hypersensitivity reaction is observed	antibody titer against ovalbumin, in words (Hartley's guinea pigs): does not induce an increase of the antibody titer; skin test reaction to ovalbumin (delayed hypersensitivity), in words (Hartley's guinea pigs; compared with FCA): light
CC(=O)N[C@@H]1[C@@H](O[C@H](C)C(=O)N[C@@H](C)C(=O)N[C@H](CCC(=O)O)C(N)=O)[C@H](O)[C@@H](CO)O[C@H]1O [Mur-NAc-L-Ala-D-Glu-α-NH2, 2-(2-acetamido-2-deoxy-3-O-D-glucopyranosyl)-D-propionyl-L-alanyl-D-α-isoglutamine]	All the mice survived	< 20	82	< 3	25	270	520	400	2150	induces an enhancement of the antibody titer that can be compared with the one caused by injecting the LPS; also recorded: high antibody titers were observed	not immunogenic	no hypersensitivity reaction is observed	antibody ABC Day 14 (mice [1]; [4]): < 20; antibody ABC Day 28 (mice [1]; [4]): 75; antibody PHA Day 14 (mice [1]; [4]): 3; antibody PHA Day 28 (mice [1]; [4]): 25; antibody ABC Day 34 (mice [1]; [4]): 210; antibody ABC Day 36 (mice [1]; [4]): 400; antibody PHA Day 34 (mice [1]; [4]): 200; antibody PHA Day 36 (mice [1]; [4]): 800; antibody ABC Day 14 (mice [1]; [5]): < 20; antibody ABC Day 28 (mice [1]; [5]): 50; antibody PHA Day 14 (mice [1]; [5]): < 3; antibody PHA Day 28 (mice [1]; [5]): 25; antibody ABC Day 34 (mice [1]; [5]): 230; antibody ABC Day 36 (mice [1]; [5]): 550; antibody PHA Day 34 (mice [1]; [5]): 200; antibody PHA Day 36 (mice [1]; [5]): 975; antibody level against influenza vaccine (hemagglutination inhibition), in words (mice [2]): much higher
